Measurements: patent US20230399341A1, “7-PHENYL SUBSTITUTED 2-AMINOQUINAZOLINE INHIBITORS OF HPK1” (MERCK SHARP & DOHME LLC, priority 2020, published 2023)

What follows are compounds tested against T1, Human HPK1, catalytic domain (Homo sapiens, UniProt Q92918) (assay: HPK1-SLP76 TR-FRET Assay). Details: 75 pM HPK1, ATP 10 uM, SLP76 10 nM, 30 min pre-incubation, 60 min reaction.
T1 sequence (Q92918 1-346): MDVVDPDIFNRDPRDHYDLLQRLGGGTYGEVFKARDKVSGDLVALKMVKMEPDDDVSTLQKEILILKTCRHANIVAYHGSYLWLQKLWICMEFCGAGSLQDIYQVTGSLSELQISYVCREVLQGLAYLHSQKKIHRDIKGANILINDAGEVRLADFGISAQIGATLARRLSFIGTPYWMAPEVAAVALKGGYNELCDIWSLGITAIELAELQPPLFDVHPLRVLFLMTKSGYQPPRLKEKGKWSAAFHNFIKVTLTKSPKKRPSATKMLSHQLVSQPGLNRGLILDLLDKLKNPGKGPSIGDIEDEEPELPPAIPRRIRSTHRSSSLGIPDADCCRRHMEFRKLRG
Type: biochemical

SMILES | IC50
COc1cc2c(cc1Nc1ncc3ccc(-c4ccc5c(c4)CCO5)cc3n1)CNCC2 [Compound 1-72, 7-(2,3-dihydro-1-benzofuran-5-yl)-N-(6-methoxy-1,2,3,4-tetrahydroisoquinolin-7-yl)quinazolin-2-amine] | 53.4 nM
Cc1c(-c2cc3nc(Nc4ccc(CS(C)(=O)=O)cc4)ncc3cc2F)cnc2c1NCCO2 [Compound 1-115, 6-fluoro-7-(8-methyl-2,3-dihydro-1H-pyrido[2,3-b][1,4]oxazin-7-yl)-N-(4-[(methylsulfonyl)methyl]phe-nyl}quinazolin-2-amine] | 0.0508 nM
COc1cc2c(cc1Nc1ncc3ccc(-c4cnc5c(C#N)cnn5c4)cc3n1)CN(C)CC2 [Compound 1-22, 6-{2-[(6-methoxy-2-methyl-1,2,3,4-tetrahydroisoquinolin-7-yl)amino]quinazolin-7-yl}pyrazolo[1,5-a]pyrimidine-3-carbonitrile] | 735 nM
COc1cc2c(cc1Nc1ncc3ccc(-c4cncc(N5CCN(C)CC5)c4)cc3n1)CNCC2 [Compound 1-54, N-(6-methoxy-1,2,3,4-tetrahydroisoquinolin-7-yl)-7-[5-(4-methylpiperazin-1-yl)pyridin-3-yl]quinazolin-2-amine] | 18.9 nM
COc1cc2c(cc1Nc1ncc3ccc(-c4cccc5c4CNCC5)cc3n1)CN(C)CC2 [Compound 1-9, N-(6-methoxy-2-methyl-1,2,3,4-tetrahydroisoquinolin-7-yl)-7-(1,2,3,4-tetrahydroisoquinolin-8-yl)quinazolin-2-amine] | 42.9 nM
COc1cc2c(cc1Nc1ncc3ccc(-c4cccc(C(C)(C)NC(C)=O)c4)cc3n1)CN(C)CC2 [Compound 1-100, N-[2-(3-{2-[(6-methoxy-2-methyl-1,2,3,4-tetrahydroisoquinolin-7-yl)amino]quinazolin-7-yl}phenyl)propan-2-yl]acetamide] | 281 nM
COc1cc2c(cc1Nc1ncc3ccc(-c4cncc(N5CCOCC5)c4)cc3n1)CNCC2 [Compound 1-42, N-(6-methoxy-1,2,3,4-tetrahydroisoquinolin-7-yl)-7-[5-(morpholin-4-yl)pyridin-3-yl]quinazolin-2-amine] | 38.5 nM
Cc1c(-c2cc3nc(Nc4ccc5c(c4)CN(CC(C)(C)O)C5=O)ncc3cc2F)cnc2c1NCCO2 [Compound 1-111, 5-{[6-fluoro-7-(8-methyl-2,3-dihydro-1H-pyrido[2,3-b][1,4]oxazin-7-yl)quinazolin-2-yl]amino}-2-(2-hydroxy-2-methylpropyl)-2,3-dihydro-1H-isoindol-1-one] | 0.766 nM

Further lines, results first:

IC50 | SMILES
0.0471 nM | Cc1c(N)cncc1-c1cc2nc(Nc3ccc4c(c3)CN(C)CC43CC3)ncc2c(N)c1F [Compound 2-153, 7-(5-amino-4-methylpyridin-3-yl)-6-fluoro-N~2~-(2′-methyl-2′,3′-dihydro-1′H-spiro[cyclopropane-1,4′-isoquinolin]-7′-yl)quinazoline-2,5-diamine]
30.4 nM | COc1cc2c(cc1Nc1ncc3ccc(Nc4ccc5c(c4)C(=O)NCC5)cc3n1)CN(C)CC2 [Compound 3-21, 7-({2-[(6-methoxy-2-methyl-1,2,3,4-tetrahydroisoquinolin-7-yl)amino]quinazolin-7-yl}-amino)-3,4-dihydroisoquinolin-1(2H)-one]
0.0422 nM | CN1CCc2ccc(Nc3ncc4c(N)c(F)c(-c5cncc6[nH]ccc56)cc4n3)cc2C1 [Compound 2-139, 6-fluoro-N~2~-(2-methyl-1,2,3,4-tetrahydroisoquinolin-7-yl)-7-(1H-pyrrolo[2,3-c]pyridin-4-yl)quinazoline-2,5-diamine]
719 nM | COc1cc2c(cc1Nc1ncc3ccc(N4CCN(C5CC5)C(=O)C4)cc3n1)CN(C)CC2 [Compound 3-73, 1-cyclopropyl-4-{2-[(6-methoxy-2-methyl-1,2,3,4-tetrahydroiso-quinolin-7-yl)amino]quinazolin-7-yl}piperazin-2-one]
148 nM | COc1cc2c(cc1Nc1ncc3ccc(N(C)CC4CNC(=O)O4)cc3n1)CN(C)CC2 (racemic) [Compound 3-30, (S and R)-5-1112-1(6-methoxy-2-methyl-1,2,3,4-tetrahydroiso-quinolin-7-yl)amino]quinazolin-7-yl}(methyl)amino]methyl}-1,3-oxazolidin-2-one]
469 nM | COc1cc2c(cc1Nc1ncc3c(N)c(F)c(-c4ccc(-c5ncco5)cc4C)cc3n1)CN(C)CC2 [Compound 2-60, 6-fluoro-N~2~-(6-methoxy-2-methyl-1,2,3,4-tetrahydroisoquinolin-7-yl)-7-[2-methyl-4-(1,3-oxazol-2-yl)phenyl]quinazoline-2,5-diamine]
0.153 nM | Cc1c(-c2cc3nc(Nc4ccc5c(c4)CN(CC(C)(C)O)C5=O)ncc3c(N)c2F)cnc2c1NCCO2 [Compound 2-42, 5-{[5-amino-6-fluoro-7-(8-methyl-2,3-dihydro-1H-pyrido[2,3-b][1,4]oxazin-7-yl)quinazolin-2-yl]amino}-2-(2-hydroxy-2-methylpropyl)-2,3-dihydro-1H-isoindol-1-one]
0.136 nM | CNC(=O)C(F)(F)c1ccc(Nc2ncc3c(N)c(F)c(-c4cnc5c(c4C)NCCO5)cc3n2)cc1 [Compound 2-186, 2-(4-{[5-amino-6-fluoro-7-(8-methyl-2,3-dihydro-1H-pyrido[2,3-b][1,4]oxazin-7-yl)quinazolin-2-yl]amino}phenyl)-2,2-difluoro-N-methylacetamide]
1.27 nM | COc1cc2c(cc1Nc1ncc3c(N)c(F)c(-c4cnc(-c5ncco5)cc4C)cc3n1)CN(C)CC2 [Compound 2-61, 6-fluoro-N~2~-(6-methoxy-2-methyl-1,2,3,4-tetrahydroisoquinolin-7-yl)-7-[4-methyl-6-(1,3-oxazol-2-yl)pyridin-3-yl]quinazoline-2,5-diamine]
270 nM | COc1ccc(CC#N)cc1Nc1ncc2c(N)c(F)c(-c3cnc4c(c3C)NCCO4)cc2n1 [Compound 2-5, (3-{[5-amino-6-fluoro-7-(8-methyl-2,3-dihydro-1H-pyrido[2,3-b][1,4]oxazin-7-yl)quinazolin-2-yl]amino}-4-methoxyphenyl)acetonitrile]
0.101 nM | C[C@H]1COC(=O)N1c1cc(N)c2cnc(Nc3ccc(S(C)(=O)=O)cc3)nc2c1 [Compound 3-76, (S)-3-(5-amino-2-((4-(methyl-sulfonyl)phenyl)amino)quinaz-olin-7-yl)-4-methyloxazolidin-2-one]
234 nM | COc1cc2c(cc1Nc1ncc3ccc(NC4CC(OC)C4)cc3n1)CN(C)CC2 (centres unmarked) [Compound 3-51, N~7~-(3-methoxycyclobutyl)-N~2~-(6-methoxy-2-methyl-1,2,3,4-tetrahydroisoquinolin-7-yl)quinazoline-2,7-diamine]
0.0821 nM | CC(=O)NC1CCc2cc(Nc3ncc4c(N)c(F)c(-c5cnc6c(c5C)NCCO6)cc4n3)ccc21 (single isomer, unassigned) [Compound 2-11, (S or R)—N-(5-((5-amino-6-fluoro-7-(8-methyl-2,3-dihydro-1H-pyrido[2,3-b][1,4]oxazin-7-yl)quinazolin-2-yl)amino)-2,3-dihydro-1H-inden-1-yl)acetamide]
0.068 nM | Cc1c(-c2cc3nc(Nc4ccc5c(c4)CCS(=O)(=O)C5)ncc3c(N)c2F)cnc2c1NCCO2 [Compound 2-138, 6-{[5-amino-6-fluoro-7-(8-methyl-2,3-dihydro-1H-pyrido[2,3-b][1,4]oxazin-7-yl)quinazolin-2-yl]amino}-3,4-dihydro-2-benzothiopyran-2,2(1H)-dione]
0.0594 nM | COc1cc(CS(C)(=O)=O)ccc1Nc1ncc2c(N)c(F)c(-c3cnc4c(c3C)NCCO4)cc2n1 [Compound 2-50, 6-fluoro-N2-(2-methoxy-4-((methylsulfonyl)methyl)phenyl)-7-(8-methyl-2,3-dihydro-1H-pyrido[2,3-b][1,4]oxazin-7-yl)quinazoline-2,5-diamine]
